Experimental data as given in patent US20110312898A1, “PROPHYLACTIC / THERAPEUTIC AGENT FOR CANCER” (Takeda Pharmaceutical Company Limited, priority 2008, published 2011).
Square brackets hold non-standard residues; d marks the D form. Arg(Me) = CNC(=N)NCCC[C@H](N)C(=O)O; Hyp = O=C(O)[C@@H]1C[C@@H](O)CN1; azaGly = NNC(=O)O

Columns and labels:
[1] = tested on: human prostate cancer cell line 22Rv1; assay: Growth-inhibitory activity on 22Rv1 spheroids (CellTiter-Glo); format: cell-based; conditions: 10% DCC-FCS
Experimental: Evaluation of the growth-inhibitory activity of the metastin peptide derivative using human prostate cancer cell line 22Rv1
Regarding Compound No. 723, the growth-inhibitory activity on androgen-independent human prostate cancer cell line 22Rv1 (CRL-2505, American Type Culture Collection) was evaluated. […] in the state of three-dimensional culture (spheroid) was used in the evaluation. Specifically, 22Rv1 cells were suspended in a RPMI1640 medium (Ref. No. 22400, Invitrogen) containing 10% FCS (Cat. No. 171012, Cell Culture Bioscience) to set the concentration to 1.5×10^6 cells/mL. The obtained suspension was spotted on a cover of a tissue culture dish (Ref. No. 353003, FALCON) (20 μL for each) to perform Hanging drop culture ([…]). In order to prevent drying, 10 mL of DPBS (Ref. No. 14190, Invitrogen) was added to the culture dish. […]
(§1) Cell growth was quantified 9 days after the start of the treatment with Compound No. 723 by measuring the chemical luminescence evoked by cellular ATP using CellTiter-Glo Luminescent Cell Viability Assay (Promega). Wallac 1420 ARVO MX/Light (Parkin Elmer) was used for the measurement of the luminescence intensity.

[2] = tested on: human prostate cancer cell line VCaP; assay: Growth-inhibitory activity on VCaP spheroids (CellTiter-Glo); format: cell-based; conditions: 10% DCC-FCS
Experimental: Evaluation of the growth-inhibitory activity of the metastin peptide derivative using human prostate cancer cell line VCaP
Regarding Compound No. 723, the inhibitory activity on androgen-independent growth of human prostate cancer cell line VCaP (CRL-2876, American Type Culture Collection) was evaluated. […] in the state of three-dimensional culture (spheroid) was used in the evaluation. Specifically, VCaP cells were suspended in a DMEM medium (Ref. No. 11995, Invitrogen) containing 10% FCS (Cat. No. 171012, Cell Culture Bioscience) to set the concentration to 1.5×10^6 cells/mL. The obtained suspension was spotted on a cover of a tissue culture dish (Ref. No. 353003, FALCON) (20 μL for each) to perform Hanging drop culture (3×10^4 cells/drop). In order to prevent drying, 10 mL of DPBS (Ref. No. 14190, Invitrogen) was added to the culture dish. […]
as §1

DU145 = assay: Antitumor activity in DU145 tumor-bearing male rat model; format: in vivo; conditions: microcapsule powder s.c. 10, 30 and 60 days after transplantation; No. 550 10 mg/kg, No. 723 1 or 10 mg/kg; 74 days after transplantation; vs surgically castrated group
Experimental: Evaluation of antitumor activity of the metastin peptide derivative in DU145 tumor-bearing male rat model
Antitumor activity of Compound No. 550 and Compound No. 723 against a DU145 tumor-bearing male rat model was evaluated. Specifically, 1×10^6 cells/100 μL suspension of DU145 (androgen-independent cell line, GPR54 highly expressing cell line, ATCC) was mixed with 100 μL of basement membrane matrix: Matrigel (trade name, BD Biosciences), and the obtained mixture was transplanted under the abdominal skin of 7-week-old F344/NJc1-rnu/rnu male rats (CLEA Japan, Inc.) which had been etherized. 10 days after the transplantation, the rats in which the volume of subcutaneous tumor reached 200 mm^3 were divided into 4 groups (Groups A-D, 10 rats for each group). […]
Regarding Group D, the rats were surgically castrated and used as the negative control group. […] 74 days after the transplantation of DU145 cells, the tumor volume (longer diameter×shorter diameter×shorter diameter/2) was measured. […]

Dunning R3327-G cells = assay: Androgen-independent antitumor effects, Dunning R3327-G cells implanted in orchiectomized Copenhagen rats; format: in vivo, rat; conditions: 50 nmol/kg/W, subcutaneous ALZET pump; day 52 following the start of dosing; compared with solvent group
Text: Dunning R3327-G cells, an androgen-sensitive rat prostate cancer cell line, were implanted into orchiectomized Copenhagen rats, and the androgen-independent antitumor effects by Compound No. 550 and Compound No. 723 were investigated.
R3327-G cells (7×10^6) were implanted subcutaneously in 10-week-old orchiectomized male Copenhagen rats. Fifty days after implantation, the rats were divided into groups based on the tumor volume, and were then assigned to a Compound 550—50 nmol/kg/W group, a Compound No. 723—50 nmol/kg/W group, and a solution group (each group consisting of 10 animals). The dose was calculated based on the mean weight of the animals on the day that dosing was begun. Administration was carried out by subcutaneous implantation in the dorsal region using an ALZET pump. The tumor diameter was measured on days 50, 65, 71, 78, 91 and 102 following cell implantation (days 0, 15, 21, 28, 41 and 52 following the start of dosing). The tumor volume (mm^3) was calculated as follows: major axis×minor axis^2÷2. Owing to deaths and the euthanization of animals in the course of the tests, on day 52 following the start of dosing (day 102 after transplantation), only six animals remained in the solution group and only seven animals remained in the Compound No. 723 group.

Row | Substance | Luminescence intensity ([1]; 1 μM supplied every 12 hours for 8 days, 9 days after start of treatment, cellular ATP, n = 18, Control 483469 ± 55917) | growth of androgen-independent human prostate cancer cells (22Rv1) in the absence of androgen ([1]; 1 μM, vs control) | Luminescence intensity ([2]; 1 μM supplied every 12 hours for 8 days, 9 days after start of treatment, cellular ATP, n = 18, Control 564458 ± 27628) | androgen-independent growth of human prostate cancer cells (VCaP) ([2]; 1 μM, vs control) | antitumor effects (tumor volume) (DU145) | antitumor effects (tumor volume) (Dunning R3327-G cells)
1 | Ac-D-Tyr-Hyp-Asn-Thr-Phe-AzaGly-Leu-Arg(Me)-Trp-NH2 (Ac-[dY][Hyp]NTF[azaGly]L[Arg(Me)]W-NH2) [Compound No. 723] | 401291 ± 40565 | significantly reduced the growth | 507191 ± 73146 | significantly reduced the androgen-independent growth | antitumor effects more than the surgical castration | significant antitumor effects
2 | Ac-[dY][dW]NTF[azaGly]L[Arg(Me)]W-NH2 [Compound No. 550] | – | – | – | – | antitumor effects more than the surgical castration | significant antitumor effects
